Among the data in PubChem BioAssay (NCI) are GI50 and TGI values, retold here.

Test systems include OVCAR-5 ovarian; OVCAR-8 ovarian; SW-620 colon; K-562 leukemia; UACC-62 melanoma; HOP-92 NSCLC; TK-10 renal; OVCAR-4 ovarian; MALME-3M melanoma; HCC-2998 colon.
Experiment in all cases: NCI-60 cell line screen, 48 h

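Step 1: Grow cells in 96-well plates. Step 2: Expose to compound for 48 hours at 5 concentrations. Step 3: Interpolate endpoints linearly; if unreached, use highest concentration. GI50 = concentration required for 50% inhibition of growth. At the TGI there is no net growth.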

With `O=C(/C=C/N1CCN(c2cccc(C(F)(F)F)c2)CC1)c1ccc(Cl)cc1Cl`, the GI50 in the experiment on OVCAR-5 ovarian was 30.6 µM; in the experiment on OVCAR-8 ovarian, 28.5 µM; with SW-620 colon it was 38.8 µM; in the experiment with K-562 leukemia it was 35.8 µM; in the experiment with UACC-62 melanoma it was 21.4 µM; in the experiment on HOP-92 NSCLC, 20.6 µM. The values for the GI50 with TK-10 renal, in the experiment on OVCAR-4 ovarian and in the experiment with MALME-3M melanoma were 30.1 µM, 25.1 µM and 17.4 µM, respectively. The TGI was greater than 100 µM in the experiment with OVCAR-5 ovarian; 83.4 µM in the experiment with OVCAR-8 ovarian; greater than 100 µM in the experiment with SW-620 colon; greater than 100 µM in the experiment with K-562 leukemia; 41.8 µM in the experiment with UACC-62 melanoma; 50.7 µM in the experiment on HOP-92 NSCLC. The results for the TGI with TK-10 renal, with OVCAR-4 ovarian and in the experiment on MALME-3M melanoma were 87.3 µM, 53.2 µM and 36.2 µM, respectively.

As to `C/C(=N\NS(=O)(=O)c1ccc(C)cc1)c1ccc[n+]([O-])n1`, the TGI in the experiment on OVCAR-5 ovarian, in the experiment on OVCAR-8 ovarian, in the experiment with SW-620 colon, with K-562 leukemia, in the experiment with UACC-62 melanoma and in the experiment on HOP-92 NSCLC was greater than 100 µM each time. Besides, the TGI in the experiment with OVCAR-4 ovarian and in the experiment on HCC-2998 colon was greater than 100 µM each time.

Take `CN1CCCC1c1cccnc1.O=C(O)c1ccccc1O.O=C([O-])c1ccccc1[OH2+].O=C([O-])c1ccccc1[OH2+].O=C([O-])c1ccccc1[OH2+].[Mn+2]` (stereo not given): the GI50 was 63.5 µM in the experiment with OVCAR-5 ovarian; greater than 100 µM with OVCAR-8 ovarian; 42.4 µM in the experiment with SW-620 colon; greater than 100 µM in the experiment on K-562 leukemia; greater than 100 µM with UACC-62 melanoma; greater than 100 µM in the experiment on HOP-92 NSCLC. Further, the results for the GI50 in the experiment on TK-10 renal, in the experiment on OVCAR-4 ovarian and in the experiment on MALME-3M melanoma were greater than 100 µM, greater than 100 µM and 17.8 µM, respectively. Further, the TGI with OVCAR-5 ovarian, in the experiment with OVCAR-8 ovarian, with SW-620 colon, in the experiment with K-562 leukemia, in the experiment with UACC-62 melanoma and in the experiment with HOP-92 NSCLC was greater than 100 µM each time. Besides, the TGI is greater than 100 µM in the experiment with TK-10 renal, greater than 100 µM in the experiment on OVCAR-4 ovarian and 52.2 µM with MALME-3M melanoma.

Turning to `CC(C)c1ccc(/C=C(\NC(=O)c2ccccc2)c2nc3ccccc3[nH]2)cc1`, the TGI in the experiment with OVCAR-5 ovarian is greater than 100 µM; in the experiment on OVCAR-8 ovarian it was 86.9 µM; with SW-620 colon it was greater than 100 µM; in the experiment on K-562 leukemia it was greater than 100 µM; in the experiment with UACC-62 melanoma it was greater than 100 µM; with HOP-92 NSCLC it was greater than 100 µM. Besides, the TGI in the experiment on TK-10 renal, in the experiment on OVCAR-4 ovarian and in the experiment on MALME-3M melanoma was greater than 100 µM each time.

In the case of `Cc1nnc([S-])s1.[Au+].c1ccc([PH+](c2ccccc2)c2ccccc2)cc1`, the GI50 was 1.7 µM in the experiment with OVCAR-5 ovarian; 1.28 µM with UACC-62 melanoma; 1.82 µM with HOP-92 NSCLC; 1.83 µM in the experiment with TK-10 renal; 1.59 µM in the experiment with MALME-3M melanoma; 1.83 µM with HCC-2998 colon. The TGI came to 3.13 µM in the experiment on OVCAR-5 ovarian; 2.56 µM in the experiment with UACC-62 melanoma; 3.24 µM in the experiment on HOP-92 NSCLC; 3.32 µM in the experiment on TK-10 renal; 3 µM in the experiment on MALME-3M melanoma; 3.36 µM in the experiment with HCC-2998 colon.

Regarding `CCCCCCCCCCCCCCCC[N+]1(CC)CCCC1`, the GI50 in the experiment on OVCAR-5 ovarian is 0.439 µM; with SW-620 colon, 0.41 µM; in the experiment on HOP-92 NSCLC, 0.227 µM; with TK-10 renal, 0.266 µM; in the experiment with OVCAR-4 ovarian, 0.315 µM; with MALME-3M melanoma, 0.582 µM. Further, the TGI was found to be 1.81 µM in the experiment with OVCAR-5 ovarian; 1.65 µM in the experiment with SW-620 colon; 1.33 µM in the experiment with HOP-92 NSCLC; 1.21 µM with TK-10 renal; 2.25 µM in the experiment on OVCAR-4 ovarian; 1.98 µM in the experiment with MALME-3M melanoma.

Regarding `CCN(CC)CCOc1ccc(/C=C2\C[C@H]3[C@@H]4CC=C5C[C@@H](OC(C)=O)CC[C@]5(C)[C@H]4CC[C@]3(C)[C@H]2OC(C)=O)cc1OC`, the GI50 in the experiment on OVCAR-5 ovarian was 9.3 µM; in the experiment on OVCAR-8 ovarian it was 11.4 µM; in the experiment on SW-620 colon it was 16.8 µM; in the experiment with K-562 leukemia, 8.17 µM; with UACC-62 melanoma it was 11 µM; in the experiment with HOP-92 NSCLC it was 5.95 µM. Moreover, the GI50 with TK-10 renal was 9.67 µM; with HCC-2998 colon, 5.34 µM. Moreover, the TGI is 18 µM in the experiment on OVCAR-5 ovarian; 22.7 µM in the experiment on OVCAR-8 ovarian; greater than 50 µM in the experiment on SW-620 colon; 28.4 µM with K-562 leukemia; 24.8 µM in the experiment with UACC-62 melanoma; 14.7 µM with HOP-92 NSCLC. The TGI in the experiment with TK-10 renal came out at 20.5 µM; in the experiment on HCC-2998 colon it was 12.5 µM.

Regarding `CC[C@@]1(OC(=O)CN)C(=O)OCc2c1cc1n(c2=O)Cc2cc3cc(N)ccc3nc2-1`, the GI50 was 0.15 µM in the experiment on OVCAR-5 ovarian; 0.0231 µM in the experiment with SW-620 colon; less than 0.01 µM in the experiment on UACC-62 melanoma; less than 0.01 µM in the experiment on HOP-92 NSCLC; 2.19 µM in the experiment on TK-10 renal; 0.363 µM in the experiment on OVCAR-4 ovarian. For the same molecule, the GI50 in the experiment with MALME-3M melanoma was 0.195 µM. The TGI was greater than 100 µM with SW-620 colon; 0.0994 µM in the experiment on UACC-62 melanoma; 0.0705 µM in the experiment on HOP-92 NSCLC; greater than 100 µM in the experiment on TK-10 renal; 2.7 µM in the experiment on OVCAR-4 ovarian; 2.52 µM with MALME-3M melanoma.

Take `c1ccc(SCCCC(Sc2ccccc2)Sc2ccccc2)cc1`: the TGI in the experiment with OVCAR-8 ovarian, in the experiment with SW-620 colon, in the experiment with K-562 leukemia, in the experiment on UACC-62 melanoma, in the experiment on HOP-92 NSCLC and in the experiment with TK-10 renal was greater than 100 µM in each case. The TGI with OVCAR-4 ovarian and in the experiment on HCC-2998 colon was greater than 100 µM in each case.

Regarding `COc1ccc(C2=CC(c3cc(OC)c(OC)c(OC)c3)n3ncnc3N2)cc1` (stereo not given), the GI50 in the experiment with OVCAR-5 ovarian was 0.502 µM; in the experiment with OVCAR-8 ovarian it was 0.0763 µM; with SW-620 colon, 0.0484 µM; in the experiment on K-562 leukemia, 0.0359 µM; in the experiment on UACC-62 melanoma, 0.0689 µM; in the experiment with HOP-92 NSCLC it was 11.3 µM. In addition, the GI50 in the experiment on TK-10 renal is 13 µM; in the experiment with OVCAR-4 ovarian, 0.391 µM; in the experiment on HCC-2998 colon it was 0.24 µM. The TGI in the experiment on OVCAR-5 ovarian was greater than 100 µM; in the experiment with OVCAR-8 ovarian, 21.6 µM; in the experiment on SW-620 colon, greater than 100 µM; in the experiment on K-562 leukemia, greater than 100 µM; in the experiment with UACC-62 melanoma it was greater than 100 µM; in the experiment on HOP-92 NSCLC, 37.3 µM. Further, the TGI was 31.7 µM in the experiment with TK-10 renal, 39.5 µM in the experiment on OVCAR-4 ovarian and greater than 100 µM in the experiment on HCC-2998 colon.

Consider `CCOC(=O)CCC1(C(=O)OC)CCCC1=O` (stereo not given), for which the TGI in the experiment with OVCAR-5 ovarian, in the experiment on OVCAR-8 ovarian, with SW-620 colon, in the experiment with K-562 leukemia, with HOP-92 NSCLC and with TK-10 renal was greater than 100 µM throughout. In addition, the TGI with MALME-3M melanoma and in the experiment with HCC-2998 colon was greater than 100 µM in each case.
